Assay results reported in patent publication US20210238170A1, “5,5-Difluoro- and 5-Fluoro-5-Methyl-C-Glycoside Derivatives Useful As Dual SGLT1 / SGLT2 Modulators” (Janssen Pharmaceutica NV, priority 2018, published 2021).
Like-named read-outs stand apart in the source and are kept apart here.

Experiments:
human SGLT1 = target: T1, human SGLT1 (Homo sapiens, UniProt P13866); experiment: SGLT1 in vitro assay: Na-dependent 14C-AMG uptake in CHO-K1 cells stably expressing human SGLT1; type: cell-based; settings: for inhibition at 0.3 µM: read-out: SGLT1 % Inh @ 0.3 μM
T1 construct: expressed in transfected cells
T1 sequence (P13866 1-664): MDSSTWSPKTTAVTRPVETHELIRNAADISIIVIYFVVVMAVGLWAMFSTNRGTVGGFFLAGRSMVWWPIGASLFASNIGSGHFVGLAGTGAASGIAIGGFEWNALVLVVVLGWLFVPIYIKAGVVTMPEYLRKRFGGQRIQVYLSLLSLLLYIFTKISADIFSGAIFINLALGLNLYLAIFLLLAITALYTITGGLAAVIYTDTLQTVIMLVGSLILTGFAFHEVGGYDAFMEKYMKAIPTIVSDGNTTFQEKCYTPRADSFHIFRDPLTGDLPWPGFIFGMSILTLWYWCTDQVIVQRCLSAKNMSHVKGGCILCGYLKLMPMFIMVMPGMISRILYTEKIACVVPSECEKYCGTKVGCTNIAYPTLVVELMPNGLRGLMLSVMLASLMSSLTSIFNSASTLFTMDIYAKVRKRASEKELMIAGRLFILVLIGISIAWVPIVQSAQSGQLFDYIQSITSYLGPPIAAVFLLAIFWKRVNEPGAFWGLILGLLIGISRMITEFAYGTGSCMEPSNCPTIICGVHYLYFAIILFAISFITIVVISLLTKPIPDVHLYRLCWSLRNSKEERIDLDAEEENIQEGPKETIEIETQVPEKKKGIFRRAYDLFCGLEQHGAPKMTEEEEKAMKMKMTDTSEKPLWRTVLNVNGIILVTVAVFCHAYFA
Summary of the method: (§1)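 Sodium-dependent uptake of 14C-α-methyl-glucopyranoside ([…]) over 2 h at 37°C was counted by scintillation in stable human SGLT2- or SGLT1-CHO-K1 lines pretreated with 10 mM Na-butyrate. Compounds at 0.001–10 μM were preincubated for 10 min in pH 7.4 buffer with 137 mM NaCl; output is %-inhibition or IC50.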

human SGLT2 = target: T2, human SGLT2 (Homo sapiens, UniProt P31639); experiment: SGLT2 in vitro assay: Na-dependent 14C-AMG uptake in CHO-K1 cells stably expressing human SGLT2; type: cell-based; settings: for inhibition at 0.3 µM: read-out: SGLT2 % Inh @ 0.3 μM
T2 construct: expressed in transfected cells
T2 sequence (P31639 1-672): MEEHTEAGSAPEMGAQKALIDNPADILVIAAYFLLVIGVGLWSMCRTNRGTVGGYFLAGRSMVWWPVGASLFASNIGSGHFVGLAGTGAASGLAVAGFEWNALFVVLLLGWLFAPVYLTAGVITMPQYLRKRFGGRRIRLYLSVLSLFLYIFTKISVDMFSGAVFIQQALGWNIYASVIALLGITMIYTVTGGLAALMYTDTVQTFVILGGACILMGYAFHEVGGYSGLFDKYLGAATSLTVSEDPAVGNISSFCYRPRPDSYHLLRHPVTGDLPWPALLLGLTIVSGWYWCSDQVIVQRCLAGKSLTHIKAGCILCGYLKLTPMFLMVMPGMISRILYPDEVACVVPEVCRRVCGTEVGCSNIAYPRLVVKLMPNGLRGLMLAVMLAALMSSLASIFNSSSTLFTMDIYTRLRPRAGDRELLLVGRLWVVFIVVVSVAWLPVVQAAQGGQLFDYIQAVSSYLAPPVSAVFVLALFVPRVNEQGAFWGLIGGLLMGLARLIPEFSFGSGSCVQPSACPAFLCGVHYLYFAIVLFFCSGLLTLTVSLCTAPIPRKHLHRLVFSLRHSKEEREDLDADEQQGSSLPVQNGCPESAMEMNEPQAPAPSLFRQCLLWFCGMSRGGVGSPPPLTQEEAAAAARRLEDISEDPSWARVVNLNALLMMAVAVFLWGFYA
Summary of the method: as §1

[1] = @ 0.3 μM, CHO-K1 cells stably expressing human SGLT1, 14C-AMG uptake
[2] = CHO-K1 cells stably expressing human SGLT1, 14C-AMG uptake, compounds of formula (I) where R0 is fluoro
[3] = @ 0.3 μM, CHO-K1 cells stably expressing human SGLT2, 14C-AMG uptake
[4] = CHO-K1 cells stably expressing human SGLT2, 14C-AMG uptake, compounds of formula (I) where R0 is fluoro
[5] = 0.3 μM, CHO-K1 cells expressing human SGLT1
[6] = 0.3 μM, CHO-K1 cells expressing human SGLT2
[7] = CHO-K1 cells expressing human SGLT1, 14C-AMG uptake
[8] = CHO-K1 cells expressing human SGLT2, 14C-AMG uptake

| Compound | inhibition at 0.3 µM (human SGLT1; [1]) [%] | IC50 (human SGLT1; [2]) [nM] | inhibition at 0.3 µM (human SGLT2; [3]) [%] | IC50 (human SGLT2; [4]) [nM] | SGLT1 % Inh @ 0.3 μM (human SGLT1; [1]) [%] | SGLT2 % Inh @ 0.3 μM (human SGLT2; [3]) [%] | further results |
| --- | --- | --- | --- | --- | --- | --- | --- |
| COc1cc(Cl)c(Cc2ccc3c(c2)OCCO3)cc1[C@@H]1O[C@H](CO)C(F)(F)[C@H](O)[C@H]1O [Compound 48, (2S,3R,4R,6R)-2-[4-chloro-5-(2,3-dihydro-1,4-benzodioxin-6-ylmethyl)-2-methoxy-phenyl]-5,5-difluoro-6-(hydroxymethyl)tetrahydropyran-3,4-diol] | 36.5 |  | 78.1 |  |  |  |  |
| Cc1cc(O)c([C@@H]2O[C@H](CO)C(F)(F)[C@H](O)[C@H]2O)cc1Cc1cc2c(s1)CCN(C(=O)C1CCCC1)C2 [Compound 69] |  |  |  |  | 64.0 | 67.1 |  |
| CCc1ccc(Cc2cc(C3OC(CO)C(F)(F)C(O)C3O)cc3c2OCC3CO)cc1 (mixture of isomers) [Compound 61] |  |  |  |  | 32.2 | 58.0 |  |
| CCOc1ccc(Cc2cc([C@@H]3O[C@H](CO)C(F)(F)[C@H](O)[C@H]3O)c(OC)cc2C)cc1 [Compound 49] |  |  |  |  | 23.2 | 79.2 |  |
| Cc1cc(O)c([C@@H]2O[C@H](CO)C(F)(F)[C@H](O)[C@H]2O)cc1Cc1cc2cc(F)ccc2s1 [Compound 52] | 41.3 | 229 | 81.2 | 19 |  |  |  |
| N#CCOc1cc(Cl)c(Cc2cc3ccccc3s2)cc1[C@@H]1O[C@H](CO)C(F)(F)[C@H](O)[C@H]1O [Compound 51] |  |  |  |  | 30.8 | 82.0 |  |
| COC(=O)N1CCc2sc(Cc3cc([C@@H]4O[C@H](CO)C(F)(F)[C@H](O)[C@H]4O)c(O)cc3Cl)cc2C1 [Compound 64] |  |  |  |  | 6.2 | 67.1 |  |
| COc1cc(O)c([C@@H]2O[C@H](CO)[C@@](C)(F)[C@H](O)[C@H]2O)cc1Cc1ccc2c(c1)CCCO2 [Compound 2, (2S,3R,4R,5S,6R)-2-[5-(chroman-6-ylmethyl)-2-hydroxy-4-methoxy-phenyl]-5-fluoro-6-(hydroxymethyl)-5-methyl-tetrahydropyran-3,4-diol] |  |  |  |  |  |  | inhibition at 0.3 µM (human SGLT1; [5]): 31.1%; inhibition at 0.3 µM (human SGLT2; [6]): 67.4% |
| Cc1cc(O)c([C@@H]2O[C@H](CO)[C@@](C)(F)[C@H](O)[C@H]2O)cc1Cc1ccc(OCF)cc1 (stereo in doubt) [Compound 23, (2S,3R,4R,5S,6R)-5-fluoro-2-(5-(4-(fluoromethoxy)benzyl)-2-hydroxy-4-methylphenyl)-6-(hydroxymethyl)-5-methyl-tetrahydro-2H-pyran-3,4-diol] |  |  |  |  |  |  | inhibition at 0.3 µM (human SGLT1; [5]): 54%; IC50 (human SGLT1; [7]): 319 nM; inhibition at 0.3 µM (human SGLT2; [6]): 88%; IC50 (human SGLT2; [8]): 2.8 nM |
| C[C@]1(F)[C@H](O)[C@@H](O)[C@H](c2cc(Cc3cc4ccccc4s3)c(Cl)cc2O)O[C@@H]1CO [Compound 10, (2S,3R,4R,5S,6R)-2-[5-(benzothiophen-2-ylmethyl)-4-chloro-2-hydroxy-phenyl]-5-fluoro-6-(hydroxymethyl)-5-methyl-tetrahydropyran-3,4-diol] |  |  |  |  |  |  | inhibition at 0.3 µM (human SGLT1; [5]): 41.7%; IC50 (human SGLT1; [7]): 287 nM; inhibition at 0.3 µM (human SGLT2; [6]): 87.8%; IC50 (human SGLT2; [8]): 10.2 nM |
| CC(=O)N1CCc2sc(Cc3cc([C@@H]4O[C@H](CO)C(F)(F)[C@H](O)[C@H]4O)c(O)cc3Cl)cc2C1 [Compound 72] |  |  |  |  | 38.5 | 73.0 |  |

Now from value to compound, other results behind:

| inhibition at 0.3 µM (human SGLT1; [1]) [%] | IC50 (human SGLT1; [2]) [nM] | inhibition at 0.3 µM (human SGLT2; [3]) [%] | IC50 (human SGLT2; [4]) [nM] | SGLT1 % Inh @ 0.3 μM (human SGLT1; [1]) [%] | SGLT2 % Inh @ 0.3 μM (human SGLT2; [3]) [%] | Compound | further results |
| --- | --- | --- | --- | --- | --- | --- | --- |
| 40.3 | 836 | 76.7 | 1.9 |  |  | COc1cc(C)c(Cc2ccc(OCF)cc2)cc1[C@@H]1O[C@H](CO)C(F)(F)[C@H](O)[C@H]1O [Compound 138] |  |
|  |  |  |  | 31.1 | 82.1 | Cc1cc(O)c([C@@H]2O[C@H](CO)C(F)(F)[C@H](O)[C@H]2O)cc1Cc1cc2c(s1)CCN(C(=O)c1nccs1)C2 [Compound 80] |  |
|  |  |  |  | 32.7 | 84.5 | CN(C)c1ccc(Cc2cc([C@@H]3O[C@H](CO)C(F)(F)[C@H](O)[C@H]3O)c(O)cc2C#N)cc1 [Compound 152] |  |
| 67.7 | 153 | 90.6 | 1.3 |  |  | Cc1cc(O)c([C@@H]2O[C@H](CO)C(F)(F)[C@H](O)[C@H]2O)cc1Cc1ccc(OCF)cc1 [Compound 133] |  |
| 86.4 | 12 | 82.4 | 0.5 |  |  | Cc1ccc(Cc2cc([C@@H]3O[C@H](CO)C(F)(F)[C@H](O)[C@H]3O)c(O)cc2Cl)cc1 [Compound 171, (2S,3R,4R,6R)-2-(4-chloro-2-hydroxy-5-(4-methylbenzyl)phenyl)-5,5-difluoro-6-(hydroxymethyl)-tetrahydro-2H-pyran-3,4-diol] |  |
|  |  |  |  | 21.4 | 55.0 | COc1cc(Cl)c(Cc2cc3c(s2)CCN(C(C)=O)C3)cc1[C@@H]1O[C@H](CO)C(F)(F)[C@H](O)[C@H]1O [Compound 73] |  |
|  |  |  |  | 17.4 | 69.5 | COc1ccc(Cc2ccc(O)c([C@@H]3O[C@H](CO)C(F)(F)[C@H](O)[C@H]3O)c2)cc1 [Compound 86] |  |
| 84.4 | 72 | 72.5 | 3.1 |  |  | CCc1cc(O)c([C@@H]2O[C@H](CO)C(F)(F)[C@H](O)[C@H]2O)cc1Cc1ccc(C2CC2)cc1 [Compound 150] |  |
| 66.6 | 70 | 94.4 | 1.6 |  |  | COc1ccc(Cc2cc([C@@H]3O[C@H](CO)C(F)(F)[C@H](O)[C@H]3O)c(O)cc2C)cc1 [Compound 108, (2S,3R,4R,6R)-5,5-difluoro-2-[2-hydroxy-5-[(4-methoxyphenyl)methyl]-4-methyl-phenyl]-6-(hydroxymethyl)tetrahydropyran-3,4-diol] |  |
| 73 | 66 | 87.8 | 16.4 |  |  | CCc1cc(O)c([C@@H]2OC3(CC3)C(F)(F)[C@H](O)[C@H]2O)cc1Cc1ccc2c(c1)OCCO2 [Compound 94] |  |
|  |  |  |  | 27.4 | 70.5 | CCc1cc(OC)c([C@@H]2O[C@H](CO)C(F)(F)[C@H](O)[C@H]2O)cc1Cc1ccc(OC(F)(F)F)cc1 [Compound 109] |  |
| 52 | 105 | 90.6 | 1.7 |  |  | COc1cc(Cl)c(Cc2ccc(C)cc2)cc1[C@@H]1O[C@H](CO)C(F)(F)[C@H](O)[C@H]1O [Compound 176] |  |
|  |  |  |  | 28.0 | 71.5 | COc1cc(C)c(Cc2cc3c(s2)CCN(C(=O)N2CCCC2)C3)cc1[C@@H]1O[C@H](CO)C(F)(F)[C@H](O)[C@H]1O [Compound 78] |  |
|  |  |  |  | 34.5 | 80.4 | COc1c(Cc2ccc3c(c2)CCCO3)cc([C@@H]2O[C@H](CO)C(F)(F)[C@H](O)[C@H]2O)c2c1CCO2 [Compound 93] |  |
|  | 505 |  | 5.5 | 50.3 | 85.4 | Cc1cc(O)c([C@@H]2O[C@H](CO)C(F)(F)[C@H](O)[C@H]2O)cc1Cc1cc2c(s1)CCN(C#N)C2 [Compound 82] |  |
| 43.5 | 1030 | 81.1 | 4.5 |  |  | COc1cc(C)c(Cc2ccc(Cl)s2)cc1[C@@H]1O[C@H](CO)C(F)(F)[C@H](O)[C@H]1O [Compound 112] |  |
